Key:
MSK2 = target: T1, MSK2 (Homo sapiens, UniProt O75676); assay: Kinase panel (Millipore); format: biochemical; conditions: 1 µM, ATP at Km
T1 construct: purchased Millipore (KinaseProfiler) kinase panel

BRSK2 = target: T2, BRSK2 (Homo sapiens, UniProt Q8IWQ3); assay: Kinase panel (Millipore); format: biochemical; conditions: 1 µM, ATP at Km
T2 construct: purchased Millipore (KinaseProfiler) kinase panel

MC3 (h) = target: T3, MC3 (h) (Homo sapiens, UniProt P41968); assay: CEREP binding assay; conditions: agonist radioligand, read-out: % Inhibition of Control Specific Binding
T3 construct: purchased Millipore (KinaseProfiler) kinase panel

ASK1 = ASK1 (Homo sapiens, UniProt Q99683); assay: Kinase panel (Millipore); format: biochemical; conditions: 1 µM, ATP at Km
CAMKIV = CAMKIV (Homo sapiens, UniProt Q16566); assay: Kinase panel (Millipore); format: biochemical; conditions: 1 µM, ATP at Km
CK1GAMMA1 = CK1GAMMA1 (Homo sapiens, UniProt Q9HCP0); assay: Kinase panel (Millipore); format: biochemical; conditions: 1 µM, ATP at Km
JNK1ALPHA1 = JNK1ALPHA1 (Homo sapiens, UniProt P45983); assay: Kinase panel (Millipore); format: biochemical; conditions: 1 µM, ATP at Km
LYN = LYN (Homo sapiens, UniProt P07948); assay: Kinase panel (Millipore); format: biochemical; conditions: 1 µM, ATP at Km
ROS = target: T4, ROS (Homo sapiens, UniProt P08922); assay: Kinase panel (Millipore); format: biochemical; conditions: 1 µM, ATP at Km
T4 construct: purchased Millipore (KinaseProfiler) kinase panel

NEK3 = target: T5, NEK3 (Homo sapiens, UniProt P51956); assay: Kinase panel (Millipore); format: biochemical; conditions: 1 µM, ATP at Km
T5 construct: purchased Millipore (KinaseProfiler) kinase panel
T5 sequence (P51956 whole entry): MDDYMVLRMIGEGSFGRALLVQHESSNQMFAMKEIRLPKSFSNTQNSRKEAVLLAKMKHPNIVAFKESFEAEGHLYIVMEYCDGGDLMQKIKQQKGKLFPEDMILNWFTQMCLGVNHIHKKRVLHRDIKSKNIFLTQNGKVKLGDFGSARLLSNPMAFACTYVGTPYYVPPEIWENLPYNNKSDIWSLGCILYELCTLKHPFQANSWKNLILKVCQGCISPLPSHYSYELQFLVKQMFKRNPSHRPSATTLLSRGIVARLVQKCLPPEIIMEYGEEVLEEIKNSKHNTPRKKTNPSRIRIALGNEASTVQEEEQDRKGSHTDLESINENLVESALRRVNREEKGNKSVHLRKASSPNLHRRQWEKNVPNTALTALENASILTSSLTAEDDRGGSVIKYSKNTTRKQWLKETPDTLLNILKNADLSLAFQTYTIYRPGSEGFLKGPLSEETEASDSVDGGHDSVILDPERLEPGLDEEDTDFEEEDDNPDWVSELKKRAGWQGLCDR

ABL (Q252H) = ABL (Q252H) (Homo sapiens, UniProt P00519, Q252H); conditions: 1 µM, ATP at Km
MRCKBETA = target: T6, MRCKBETA (Homo sapiens, UniProt Q9Y5S2); assay: Kinase panel (Millipore); format: biochemical; conditions: 1 µM, ATP at Km
T6 construct: purchased Millipore (KinaseProfiler) kinase panel

MUSK = target: T7, MUSK (Homo sapiens, UniProt O15146); assay: Kinase panel (Millipore); format: biochemical; conditions: 1 µM, ATP at Km
T7 construct: purchased Millipore (KinaseProfiler) kinase panel

ABL(T315I) = ABL(T315I) (Homo sapiens, UniProt P00519, T315I); conditions: 1 µM, ATP at Km
CKIT(V654A) = CKIT(V654A) (Homo sapiens, UniProt P10721, V654A); conditions: 1 µM, ATP at Km
GSK3BETA = GSK3BETA (Homo sapiens, UniProt P49841); assay: Kinase panel (Millipore); format: biochemical; conditions: 1 µM, ATP at Km
SAPK2A = SAPK2A (Homo sapiens, UniProt Q16539); assay: Kinase panel (Millipore); format: biochemical; conditions: 1 µM, ATP at Km
EEF-2K = EEF-2K (Homo sapiens, UniProt O00418); assay: Kinase panel (Millipore); format: biochemical; conditions: 1 µM, ATP at Km
CDK5/P35 = CDK5/P35 (Homo sapiens, UniProt Q00535); conditions: 1 µM, ATP at Km
Chain of CDK5/P35 (Q00535 whole entry): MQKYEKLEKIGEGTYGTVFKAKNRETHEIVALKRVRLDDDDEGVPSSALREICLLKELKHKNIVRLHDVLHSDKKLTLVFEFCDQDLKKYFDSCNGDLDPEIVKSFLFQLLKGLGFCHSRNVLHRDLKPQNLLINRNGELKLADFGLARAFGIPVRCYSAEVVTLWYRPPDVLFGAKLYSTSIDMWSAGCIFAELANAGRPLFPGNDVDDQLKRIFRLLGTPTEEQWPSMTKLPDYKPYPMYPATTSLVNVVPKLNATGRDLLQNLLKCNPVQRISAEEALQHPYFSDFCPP
Chain of CDK5/P35 (Q15078 whole entry partner): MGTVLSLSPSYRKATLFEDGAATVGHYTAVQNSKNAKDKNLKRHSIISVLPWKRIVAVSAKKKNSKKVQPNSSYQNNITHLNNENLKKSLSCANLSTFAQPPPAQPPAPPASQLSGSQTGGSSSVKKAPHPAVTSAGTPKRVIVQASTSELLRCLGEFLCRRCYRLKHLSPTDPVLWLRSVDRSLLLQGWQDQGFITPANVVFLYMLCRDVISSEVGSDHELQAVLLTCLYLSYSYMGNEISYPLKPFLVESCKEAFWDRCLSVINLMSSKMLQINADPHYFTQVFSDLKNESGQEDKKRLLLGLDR

PI3 KINASE (H1047R/P85A) = PI3 KINASE (H1047R/P85A) (Homo sapiens, UniProt P42336, H1047R); conditions: 1 µM, ATP at Km
[1] = human
FP (h) = target: T8, FP (h) (Homo sapiens, UniProt P43088); assay: CEREP binding assay; conditions: agonist radioligand, read-out: % Inhibition of Control Specific Binding
T8 construct: purchased Millipore (KinaseProfiler) kinase panel

in vitro = conditions: human, Caco-2, pH 7.4
CysLT1 (LTD4) (h) = target: T9, CysLT1 (LTD4) (h) (Homo sapiens, UniProt Q9Y271); assay: CEREP binding assay; conditions: agonist radioligand, read-out: % Inhibition of Control Specific Binding
T9 construct: purchased Millipore (KinaseProfiler) kinase panel

PKCBETAI = PKCBETAI (Homo sapiens, UniProt P05771); assay: Kinase panel (Millipore); format: biochemical; conditions: 1 µM, ATP at Km
VRK2 = target: T10, VRK2 (Homo sapiens, UniProt Q86Y07); assay: Kinase panel (Millipore); format: biochemical; conditions: 1 µM, ATP at Km
T10 construct: purchased Millipore (KinaseProfiler) kinase panel

CHK1 = CHK1 (Homo sapiens, UniProt O14757); assay: Kinase panel (Millipore); format: biochemical; conditions: 1 µM, ATP at Km
cMET (D1246H) = cMET (D1246H) (Homo sapiens, UniProt P08581, D1228H); conditions: 1 µM, ATP at Km
CHK2 = target: T11, CHK2 (Homo sapiens, UniProt O96017); assay: Kinase panel (Millipore); format: biochemical; conditions: 1 µM, ATP at Km
T11 construct: purchased Millipore (KinaseProfiler) kinase panel

CDK2/CYCLINA = CDK2/CYCLINA (Homo sapiens, UniProt P24941); conditions: 1 µM, ATP at Km
CRAF = CRAF (Homo sapiens, UniProt P04049); assay: Kinase panel (Millipore); format: biochemical; conditions: 1 µM, ATP at Km
H4 (h) = target: T12, H4 (h) (Homo sapiens, UniProt Q9H3N8); assay: CEREP binding assay; conditions: agonist radioligand, read-out: % Inhibition of Control Specific Binding
T12 construct: purchased Millipore (KinaseProfiler) kinase panel

CDK2/CYCLINE = CDK2/CYCLINE (Homo sapiens, UniProt P24941); conditions: 1 µM, ATP at Km
PAK6 = PAK6 (Homo sapiens, UniProt Q9NQU5); assay: Kinase panel (Millipore); format: biochemical; conditions: 1 µM, ATP at Km
Chain of PAK6 (Q9NQU5 whole entry): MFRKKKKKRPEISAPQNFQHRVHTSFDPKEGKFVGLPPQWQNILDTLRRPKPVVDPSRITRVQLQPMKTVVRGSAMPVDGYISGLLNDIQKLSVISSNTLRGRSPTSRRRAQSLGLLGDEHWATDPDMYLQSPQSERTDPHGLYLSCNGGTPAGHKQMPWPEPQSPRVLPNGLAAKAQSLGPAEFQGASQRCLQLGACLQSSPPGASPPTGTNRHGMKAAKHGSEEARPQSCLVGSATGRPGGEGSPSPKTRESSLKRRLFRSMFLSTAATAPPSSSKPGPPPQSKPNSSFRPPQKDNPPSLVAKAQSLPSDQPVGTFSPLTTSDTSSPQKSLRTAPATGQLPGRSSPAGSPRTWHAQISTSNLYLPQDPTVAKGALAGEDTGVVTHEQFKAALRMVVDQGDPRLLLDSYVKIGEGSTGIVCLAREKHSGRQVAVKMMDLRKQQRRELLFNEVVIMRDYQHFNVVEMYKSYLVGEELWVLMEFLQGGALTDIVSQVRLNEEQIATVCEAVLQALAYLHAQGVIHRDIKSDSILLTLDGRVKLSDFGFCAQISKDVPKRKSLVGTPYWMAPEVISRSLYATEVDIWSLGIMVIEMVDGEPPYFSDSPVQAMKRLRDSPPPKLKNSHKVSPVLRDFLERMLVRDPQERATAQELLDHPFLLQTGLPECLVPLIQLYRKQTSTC

TSSK1 = target: T13, TSSK1 (Homo sapiens, UniProt Q9BXA7); assay: Kinase panel (Millipore); format: biochemical; conditions: 1 µM, ATP at Km
T13 construct: purchased Millipore (KinaseProfiler) kinase panel

WNK3 = target: T14, WNK3 (Homo sapiens, UniProt Q9BYP7); assay: Kinase panel (Millipore); format: biochemical; conditions: 1 µM, ATP at Km
T14 construct: purchased Millipore (KinaseProfiler) kinase panel
T14 sequence (Q9BYP7 whole entry): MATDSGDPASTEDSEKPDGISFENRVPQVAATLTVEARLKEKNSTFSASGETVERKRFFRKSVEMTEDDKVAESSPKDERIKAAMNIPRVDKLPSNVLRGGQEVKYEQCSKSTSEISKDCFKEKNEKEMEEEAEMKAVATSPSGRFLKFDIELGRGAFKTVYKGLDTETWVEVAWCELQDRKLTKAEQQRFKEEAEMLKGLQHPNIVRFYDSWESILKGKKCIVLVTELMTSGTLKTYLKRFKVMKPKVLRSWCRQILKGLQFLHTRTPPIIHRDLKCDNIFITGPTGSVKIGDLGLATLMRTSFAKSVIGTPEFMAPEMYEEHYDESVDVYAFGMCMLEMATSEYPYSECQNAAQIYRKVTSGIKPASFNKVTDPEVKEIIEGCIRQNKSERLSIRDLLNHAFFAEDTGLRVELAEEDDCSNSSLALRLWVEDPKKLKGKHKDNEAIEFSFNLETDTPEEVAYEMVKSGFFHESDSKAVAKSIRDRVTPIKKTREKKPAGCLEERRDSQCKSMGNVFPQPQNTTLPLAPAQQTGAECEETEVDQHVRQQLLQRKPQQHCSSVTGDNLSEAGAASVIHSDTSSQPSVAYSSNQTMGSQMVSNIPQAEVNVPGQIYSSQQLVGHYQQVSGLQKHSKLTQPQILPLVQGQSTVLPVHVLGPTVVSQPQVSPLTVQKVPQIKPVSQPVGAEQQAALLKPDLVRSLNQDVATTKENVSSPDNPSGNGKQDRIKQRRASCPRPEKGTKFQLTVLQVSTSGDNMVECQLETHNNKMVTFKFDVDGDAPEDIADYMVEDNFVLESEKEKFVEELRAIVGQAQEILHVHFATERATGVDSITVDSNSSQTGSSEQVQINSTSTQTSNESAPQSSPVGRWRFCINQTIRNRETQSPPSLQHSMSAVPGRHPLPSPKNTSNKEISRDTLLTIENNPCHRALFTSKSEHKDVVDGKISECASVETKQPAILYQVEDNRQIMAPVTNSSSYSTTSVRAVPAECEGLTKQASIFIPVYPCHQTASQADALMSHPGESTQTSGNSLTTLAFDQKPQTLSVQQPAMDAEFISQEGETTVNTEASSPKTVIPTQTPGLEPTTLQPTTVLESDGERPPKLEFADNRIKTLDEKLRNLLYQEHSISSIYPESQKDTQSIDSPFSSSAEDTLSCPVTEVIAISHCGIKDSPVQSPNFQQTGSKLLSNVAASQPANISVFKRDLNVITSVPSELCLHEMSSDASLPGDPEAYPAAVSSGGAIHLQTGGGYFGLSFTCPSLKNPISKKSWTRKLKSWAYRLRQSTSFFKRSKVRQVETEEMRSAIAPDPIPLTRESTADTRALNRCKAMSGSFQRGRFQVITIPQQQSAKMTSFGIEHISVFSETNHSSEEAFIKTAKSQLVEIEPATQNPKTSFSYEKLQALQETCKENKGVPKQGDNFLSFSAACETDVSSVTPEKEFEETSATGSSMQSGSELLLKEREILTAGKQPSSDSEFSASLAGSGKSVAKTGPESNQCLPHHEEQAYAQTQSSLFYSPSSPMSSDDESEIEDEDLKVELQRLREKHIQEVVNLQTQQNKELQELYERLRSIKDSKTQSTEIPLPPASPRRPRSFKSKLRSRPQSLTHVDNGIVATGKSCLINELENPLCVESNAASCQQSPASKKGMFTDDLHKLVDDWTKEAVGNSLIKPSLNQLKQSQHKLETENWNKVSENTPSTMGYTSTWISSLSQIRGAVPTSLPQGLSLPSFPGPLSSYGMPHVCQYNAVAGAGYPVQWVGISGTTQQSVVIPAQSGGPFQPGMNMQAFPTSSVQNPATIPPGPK

TEC ACTIVATED = target: T15, TEC ACTIVATED (Homo sapiens, UniProt P42680); assay: Kinase panel (Millipore); format: biochemical; conditions: 1 µM, ATP at Km
T15 construct: purchased Millipore (KinaseProfiler) kinase panel

CHK2(I157T) = CHK2(I157T) (Homo sapiens, UniProt O96017, I157T); conditions: 1 µM, ATP at Km
GRK5 = target: T16, GRK5 (Homo sapiens, UniProt P34947); assay: Kinase panel (Millipore); format: biochemical; conditions: 1 µM, ATP at Km
T16 construct: purchased Millipore (KinaseProfiler) kinase panel

CHK2(R145W) = CHK2(R145W) (Homo sapiens, UniProt O96017, R145W); conditions: 1 µM, ATP at Km
RON = target: T17, RON (Homo sapiens, UniProt Q04912); assay: Kinase panel (Millipore); format: biochemical; conditions: 1 µM, ATP at Km
T17 construct: purchased Millipore (KinaseProfiler) kinase panel

TR (TH) = conditions: 10 µM, agonist radioligand
EGFR = EGFR (Homo sapiens, UniProt P00533); assay: Kinase panel (Millipore); format: biochemical; conditions: 1 µM, ATP at Km
Chain of EGFR (P00533 25-1210): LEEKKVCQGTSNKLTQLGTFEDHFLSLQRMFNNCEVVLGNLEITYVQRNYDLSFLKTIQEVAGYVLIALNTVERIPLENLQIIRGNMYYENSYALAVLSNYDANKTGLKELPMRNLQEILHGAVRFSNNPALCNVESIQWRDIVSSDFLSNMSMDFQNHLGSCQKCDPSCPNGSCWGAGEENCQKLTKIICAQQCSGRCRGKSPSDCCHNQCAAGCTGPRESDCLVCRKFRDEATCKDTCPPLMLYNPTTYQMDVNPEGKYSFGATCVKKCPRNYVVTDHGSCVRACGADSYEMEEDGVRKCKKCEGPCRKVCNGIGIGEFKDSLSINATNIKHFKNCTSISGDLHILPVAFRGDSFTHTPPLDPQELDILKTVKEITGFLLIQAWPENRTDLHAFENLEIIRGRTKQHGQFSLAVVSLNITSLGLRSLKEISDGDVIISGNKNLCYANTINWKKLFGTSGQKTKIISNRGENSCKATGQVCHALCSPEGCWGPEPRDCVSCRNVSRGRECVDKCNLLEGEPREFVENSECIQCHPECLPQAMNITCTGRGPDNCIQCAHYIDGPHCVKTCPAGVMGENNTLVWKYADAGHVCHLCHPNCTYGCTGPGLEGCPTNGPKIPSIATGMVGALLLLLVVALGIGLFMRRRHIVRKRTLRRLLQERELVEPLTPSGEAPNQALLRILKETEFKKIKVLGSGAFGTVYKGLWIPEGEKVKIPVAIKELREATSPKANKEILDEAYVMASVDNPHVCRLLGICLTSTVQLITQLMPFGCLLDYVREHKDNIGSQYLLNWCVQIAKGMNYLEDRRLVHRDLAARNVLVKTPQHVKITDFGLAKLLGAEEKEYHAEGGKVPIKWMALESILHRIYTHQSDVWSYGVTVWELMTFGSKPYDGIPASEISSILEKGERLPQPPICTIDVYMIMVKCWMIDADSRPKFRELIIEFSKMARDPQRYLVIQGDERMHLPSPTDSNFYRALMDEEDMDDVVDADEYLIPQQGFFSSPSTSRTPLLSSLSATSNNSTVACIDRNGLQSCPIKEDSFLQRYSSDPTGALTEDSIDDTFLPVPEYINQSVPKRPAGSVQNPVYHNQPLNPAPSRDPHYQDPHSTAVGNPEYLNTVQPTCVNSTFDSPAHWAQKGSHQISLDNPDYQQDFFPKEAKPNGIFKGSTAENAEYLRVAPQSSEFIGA

With `Cn1ncc2cc(-c3cnc(N)c(Cl)c3N3CCC4(CCNC4=O)CC3)ccc21` [Compound 109, 8-(2-Amino-3-chloro-5-(1-methyl-1H-indazol-5-yl)pyridin-4-yl)-2,8-diazaspiro[4.5]decan-1-one] the “% effect” value (MSK2) was 5%, the “% effect” value (BRSK2) was 0% and the inhibition at 10 µM (MC3 (h)) was -24%. The “% effect” value (ASK1) was 17%, the “% effect” value (CAMKIV) was 14% and the “% effect” value (CK1GAMMA1) was -5%. For the same molecule, the “% effect” value (JNK1ALPHA1) was -6%, the “% effect” value (LYN) was -3% and the “% effect” value (ROS) was 8%. The “% effect” value (NEK3) was -11%, the “% effect” value (ABL (Q252H)) was -10% and the “% effect” value (MRCKBETA) was -35%. For the same molecule, the “% effect” value (MUSK) was 3%, the “% effect” value (ABL(T315I)) was 4% and the “% effect” value (CKIT(V654A)) was 9%. The “% effect” value (GSK3BETA) was -11%, the “% effect” value (SAPK2A) was -6% and the “% effect” value (EEF-2K) was -6%. For the same molecule, the “% effect” value (CDK5/P35) was 1%, the “% effect” value (PI3 KINASE (H1047R/P85A)) was 7% and the Vd [1] was 1.4 L/kg. For the same molecule, the clearance [1] was 0.36 L/h/kg, the inhibition at 10 µM (FP (h)) was -1% and the Papp A→B at 2 h, 1 μM (in vitro) was 318 nm/s. The inhibition at 10 µM (CysLT1 (LTD4) (h)) was 12%, the “% effect” value (PKCBETAI) was -4% and the “% effect” value (VRK2) was 3%. The “% effect” value (CHK1) was -8%, the “% effect” value (cMET (D1246H)) was -8% and the “% effect” value (CHK2) was -2%. The “% effect” value (CDK2/CYCLINA) was 1%, the “% effect” value (CRAF) was -10% and the inhibition at 10 µM (H4 (h)) was 0%. The “% effect” value (CDK2/CYCLINE) was 3%, the “% effect” value (PAK6) was 2% and the “% effect” value (TSSK1) was -7%. For the same molecule, the “% effect” value (WNK3) was 6%, the “% effect” value (TEC ACTIVATED) was -1% and the “% effect” value (CHK2(I157T)) was -5%. For the same molecule, the “% effect” value (GRK5) was 7%, the “% effect” value (CHK2(R145W)) was 7% and the “% effect” value (RON) was -1%. The “% Inhibition of Control Specific Binding” value (TR (TH)) was -13% and the “% effect” value (EGFR) was 4%.
